Test results published in patent publication US8609644B2, “Amino derivatives of androstanes and androstenes as medicaments for cardiovascular disorders” (priority 2006, dated 2013).
Where a name gives a salt, the structure may show the parent alone. Read-outs that look alike come from different tables or passages of the source.

Legend:
[1] = system: fresh rat hepatocytes; test: Metabolism in fresh rat hepatocytes; details: fresh rat hepatocytes; test item nominal concentration 45 μM
[2] = target: Na+, K+-ATPase (Canis lupus familiaris, UniProt P50997); test: biochemical; design: species or system dog
[3] = system: anesthetized guinea-pig; test: Inotropic effect and lethal dose, slow intravenous infusion (over 90 minutes) in anesthetized guinea-pig; details: for % decrease from Emax after 20 min from the end of the infusion: duration of the inotropic effect; for Maximum dose infused: maximum dose infused in the survived animals
[4] = system: hypertensive ouabain-sensitive rats (os rats); test: Systolic blood pressure fall in hypertensive ouabain-sensitive rats (OS rats); assay type: in vivo, rat; details: 10 μg/kg/day by mouth for four weeks; for HR / SBP: measured 6 hours after the treatment; for SBP: tail-cuff
Method: The ability of these compounds to lower blood pressure was tested by using an animal model with induced hypertension, in particular, rats made hypertensive by chronic infusion of ouabain, according to Ferrari P., et al. J. Pharm. Exp. Ther. 1998, 285, 83-94.
The procedure adopted to test the antihypertensive activity of the compounds on the above mentioned model was the following: systolic blood pressure (SBP) and heart rate (HR) were measured by an indirect tail-cuff method. The blood pressure lowering effect was measured in hypertensive ouabain-sensitive rats. The compound, suspended in Methocel 0.5% (w/v), was administered daily at the dose of 10 μg/kg/day by mouth for four weeks. SBP and HR were measured weekly 6 hours after the treatment. The comparison are ouabain sensitive rats (OS rats) and non hypertensive rats (control), both treated only with Methocel 0.5% (w/v). As shown in the following Table 4, treatment with a compound of the present invention lowers the blood pressure of OS rats (170 mm Hg) to almost the level of control rats (150 mm Hg).

[5] = slow i.v. infusion over 90 minutes
[6] = read-out: Na+, K+-ATPase Inhibition IC50

Compound	% of compound metabolized after 60 minutes [1] [%]	IC50 ([2]; Na+, K+-ATPase Inhibition IC50) [µM]	ED80 ([3]; Cavia porcellus, iv, 1.5 h, read-out: ED80 (inotropic potency, dose increasing +dP/dTmax by 80%)) [µmol/kg]	ED (max) ([3]; Cavia porcellus, iv, 1.5 h, read-out: EDmax (dose inducing maximum positive inotropic effect)) [µmol/kg]	Emax ([3]; Cavia porcellus, iv, 1.5 h, read-out: Emax % increase in +dP/dTmax) [%]	% decrease from Emax after 20 min from the end of the infusion [3] [%]	Maximum dose infused [3] [µmol/kg]	Dead/treated [3, 5]	IC50 [2, 6] [µM]	Lethal dose/ED80 (safety ratio) ([3]; calculated in the died animals)	Emax % increase in +dP/dTmax ([3]; maximum increase in contractile force, slow i.v. infusion over 90 minutes) [%]	ED80 (inotropic potency, dose increasing +dP/dTmax by 80%) [3, 5] [µmol/kg]	EDmax (dose inducing maximum positive inotropic effect) [3, 5] [µmol/kg]	IC50 ([2]; dog kidney enzyme, read-out: Na+, K+-ATPase Inhibition IC50) [µM]	HR % beats/min [4]	SBP - % (fall vs OS rats) [4] [%]	SBP - mm Hg (fall vs OS rats) [4] [mm Hg]	HR [4] [beats/min.]	SBP [4] [mm Hg]
C=C1C[C@@H]2[C@H](CC[C@]3(C)C(=O)CC[C@@H]23)[C@@]2(C)CC/C(=N\OCCN)CC12.Cl (stereo partly drawn) [I-ai, (E) 3-(2-Aminoethoxyimino)-6-methyleneandrostan-17-one hydrochloride]	27	0.084	1.2	2.99	235	100	3.2	0/5	–	–	–	–	–	–	–	–	–	–	–
C[C@]12CCC(=NOCCN)CC1[C@@H](NC=O)C[C@@H]1[C@@H]2CC[C@]2(C)C(=O)CC[C@@H]12.O=C(O)/C=C/C(=O)O (stereo partly drawn) [I-be, (E,Z) 3-(2-Aminoethoxyimino)-6α-formamidoandrostan-17-one fumarate]	16	–	–	–	–	37	50.4	1/5	0.16	32.8	174	1.99	27.4	–	–	–	–	–	–
CON=C1CC2CC(=NOCCN)CCC2(C)C2CCC3(C)C(=O)CCC3C12 (mixture of isomers) [I-bt, (E,Z)-3-(2-Aminoethoxyimino)-7-(E)-methoxyiminoandrostan-17-one fumarate]	–	–	–	–	–	–	–	–	–	–	–	–	–	12	0%	8.3	14.2	368	155.8
COC1CC2CC(=NOCCN)CCC2(C)C2CCC3(C)C(=O)CCC3C12 (mixture of isomers) [I-ee, (E,Z) 3-(2-Aminoethoxyimino)-7α-methoxyandrostane-17-one hemifumarate]	22	–	–	–	–	–	–	–	14	–	–	–	–	–	+5.1%	11.0	19.0	381	151.0
